{
  "source": "PubChem BioAssay (NCI)",
  "test_in_all_cases": "growth of human tumour cells (NCI), 48 h",
  "key": {"[1]": {"tested_on": "786-0 renal"}, "[2]": {"tested_on": "A498 renal"}, "[3]": {"tested_on": "A549 NSCLC"}, "[4]": {"tested_on": "ACHN renal"}, "[5]": {"tested_on": "BT-549 breast"}, "[6]": {"tested_on": "CAKI-1 renal"}, "[7]": {"tested_on": "CCRF-CEM leukemia"}, "[8]": {"tested_on": "COLO 205 colon"}, "[9]": {"tested_on": "DU-145 prostate"}, "[10]": {"tested_on": "EKVX NSCLC"}, "[11]": {"tested_on": "HCC-2998 colon"}, "[12]": {"tested_on": "HCT-116 colon"}, "[13]": {"tested_on": "HCT-15 colon"}, "[14]": {"tested_on": "HL-60(TB) leukemia"}, "[15]": {"tested_on": "HOP-62 NSCLC"}, "[16]": {"tested_on": "HOP-92 NSCLC"}, "[17]": {"tested_on": "HS 578T breast"}, "[18]": {"tested_on": "HT29 colon"}, "[19]": {"tested_on": "IGROV1 ovarian"}, "[20]": {"tested_on": "K-562 leukemia"}, "[21]": {"tested_on": "KM12 colon"}, "[22]": {"tested_on": "LOX IMVI melanoma"}, "[23]": {"tested_on": "M14 melanoma"}, "[24]": {"tested_on": "MALME-3M melanoma"}, "[25]": {"tested_on": "MCF7 breast"}, "[26]": {"tested_on": "MDA-MB-231 breast"}, "[27]": {"tested_on": "MDA-MB-435"}, "[28]": {"tested_on": "MDA-N"}, "[29]": {"tested_on": "MOLT-4 leukemia"}, "[30]": {"tested_on": "NCI-H23 lung"}, "[31]": {"tested_on": "NCI-H460 lung"}, "[32]": {"tested_on": "NCI-H522 lung"}, "[33]": {"tested_on": "NCI/ADR-RES ovarian"}, "[34]": {"tested_on": "OVCAR-3 ovarian"}, "[35]": {"tested_on": "OVCAR-5 ovarian"}, "[36]": {"tested_on": "OVCAR-8 ovarian"}, "[37]": {"tested_on": "PC-3 prostate"}, "[38]": {"tested_on": "RPMI-8226 leukemia"}, "[39]": {"tested_on": "RXF 393 renal"}, "[40]": {"tested_on": "SF-268 CNS"}, "[41]": {"tested_on": "SF-295 CNS"}, "[42]": {"tested_on": "SF-539 CNS"}, "[43]": {"tested_on": "SK-MEL-2 melanoma"}, "[44]": {"tested_on": "SK-MEL-28 melanoma"}, "[45]": {"tested_on": "SK-MEL-5 melanoma"}, "[46]": {"tested_on": "SK-OV-3 ovarian"}, "[47]": {"tested_on": "SN12C renal"}, "[48]": {"tested_on": "SNB-19 CNS"}, "[49]": {"tested_on": "SR leukemia"}, "[50]": {"tested_on": "SW-620 colon"}, "[51]": {"tested_on": "T-47D breast"}, "[52]": {"tested_on": "TK-10 renal"}, "[53]": {"tested_on": "U251 CNS"}, "[54]": {"tested_on": "UACC-257 melanoma"}, "[55]": {"tested_on": "UACC-62 melanoma"}, "[56]": {"tested_on": "UO-31 renal"}},
  "note": "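Five compound concentrations were applied to cells in 96-well plates for 48 hours; endpoints were derived by simple linear interpolation of the resulting dose-response curve. TGI: total growth inhibition.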",
  "data": [
    {"smiles": "O=C(Cc1nc2ncccc2[nH]c1=O)c1c[nH]c2ccccc12", "values": [
      {"measurement": "TGI", "setting": "[1]", "result": 40.5, "unit": "µM"},
      {"measurement": "TGI", "setting": "[2]", "result": 31.7, "unit": "µM"},
      {"measurement": "TGI", "setting": "[3]", "result": 47.8, "unit": "µM"},
      {"measurement": "TGI", "setting": "[4]", "result": 30.1, "unit": "µM"},
      {"measurement": "TGI", "setting": "[5]", "result": 62, "unit": "µM"},
      {"measurement": "TGI", "setting": "[6]", "result": 31.9, "unit": "µM"},
      {"measurement": "TGI", "setting": "[7]", "result": 40.3, "unit": "µM"},
      {"measurement": "TGI", "setting": "[8]", "result": 31.2, "unit": "µM"},
      {"measurement": "TGI", "setting": "[9]", "result": 32.7, "unit": "µM"},
      {"measurement": "TGI", "setting": "[10]", "result": 56.9, "unit": "µM"},
      {"measurement": "TGI", "setting": "[11]", "result": 34.6, "unit": "µM"},
      {"measurement": "TGI", "setting": "[12]", "result": 49, "unit": "µM"},
      {"measurement": "TGI", "setting": "[13]", "result": 95.8, "unit": "µM"},
      {"measurement": "TGI", "setting": "[14]", "result": "> 100", "unit": "µM"},
      {"measurement": "TGI", "setting": "[15]", "result": 36.9, "unit": "µM"},
      {"measurement": "TGI", "setting": "[16]", "result": 38.4, "unit": "µM"},
      {"measurement": "TGI", "setting": "[17]", "result": 40.8, "unit": "µM"},
      {"measurement": "TGI", "setting": "[18]", "result": 60.9, "unit": "µM"},
      {"measurement": "TGI", "setting": "[19]", "result": 39, "unit": "µM"},
      {"measurement": "TGI", "setting": "[20]", "result": 63.2, "unit": "µM"},
      {"measurement": "TGI", "setting": "[21]", "result": 34.5, "unit": "µM"},
      {"measurement": "TGI", "setting": "[22]", "result": 44, "unit": "µM"},
      {"measurement": "TGI", "setting": "[23]", "result": 43.1, "unit": "µM"},
      {"measurement": "TGI", "setting": "[24]", "result": 32.7, "unit": "µM"},
      {"measurement": "TGI", "setting": "[25]", "result": 32.3, "unit": "µM"},
      {"measurement": "TGI", "setting": "[26]", "result": 35.3, "unit": "µM"},
      {"measurement": "TGI", "setting": "[27]", "result": 30.7, "unit": "µM"},
      {"measurement": "TGI", "setting": "[28]", "result": 45.4, "unit": "µM"},
      {"measurement": "TGI", "setting": "[29]", "result": 94.8, "unit": "µM"},
      {"measurement": "TGI", "setting": "[30]", "result": 54, "unit": "µM"},
      {"measurement": "TGI", "setting": "[31]", "result": 34.4, "unit": "µM"},
      {"measurement": "TGI", "setting": "[32]", "result": 35.4, "unit": "µM"},
      {"measurement": "TGI", "setting": "[33]", "result": "> 100", "unit": "µM"},
      {"measurement": "TGI", "setting": "[34]", "result": 32.5, "unit": "µM"},
      {"measurement": "TGI", "setting": "[35]", "result": 59.2, "unit": "µM"},
      {"measurement": "TGI", "setting": "[36]", "result": 81.1, "unit": "µM"},
      {"measurement": "TGI", "setting": "[37]", "result": 29.9, "unit": "µM"},
      {"measurement": "TGI", "setting": "[38]", "result": 91.8, "unit": "µM"},
      {"measurement": "TGI", "setting": "[39]", "result": 39.1, "unit": "µM"},
      {"measurement": "TGI", "setting": "[40]", "result": 30.5, "unit": "µM"},
      {"measurement": "TGI", "setting": "[41]", "result": 31.9, "unit": "µM"},
      {"measurement": "TGI", "setting": "[42]", "result": 31.5, "unit": "µM"},
      {"measurement": "TGI", "setting": "[43]", "result": 30.8, "unit": "µM"},
      {"measurement": "TGI", "setting": "[44]", "result": 32.8, "unit": "µM"},
      {"measurement": "TGI", "setting": "[45]", "result": 73, "unit": "µM"},
      {"measurement": "TGI", "setting": "[46]", "result": 29.8, "unit": "µM"},
      {"measurement": "TGI", "setting": "[47]", "result": 35.9, "unit": "µM"},
      {"measurement": "TGI", "setting": "[48]", "result": 35.7, "unit": "µM"},
      {"measurement": "TGI", "setting": "[49]", "result": 96.2, "unit": "µM"},
      {"measurement": "TGI", "setting": "[50]", "result": 40.5, "unit": "µM"},
      {"measurement": "TGI", "setting": "[51]", "result": 34.5, "unit": "µM"},
      {"measurement": "TGI", "setting": "[52]", "result": 30.4, "unit": "µM"},
      {"measurement": "TGI", "setting": "[53]", "result": 35.1, "unit": "µM"},
      {"measurement": "TGI", "setting": "[54]", "result": 36.1, "unit": "µM"},
      {"measurement": "TGI", "setting": "[55]", "result": 31.2, "unit": "µM"},
      {"measurement": "TGI", "setting": "[56]", "result": 32.5, "unit": "µM"}
    ]}
  ]
}
